Drawing on patent US20260356824A1, “COMPOUNDS FOR TREATING FIBROTIC DISEASES” (Meta-Immue Inc., priority 2023, published 2026), this text covers IC50 for 16 compounds.

Test [1] concerns the target T1, hLPAR1 (Homo sapiens, UniProt Q92633).
T1 construct: expressed in transfected cells
Description: Ca2+ Flux Assay (B103 cells stably expressing hLPAR1). The format is cell-based. The note with it: LPA-induced calcium release, Fura-2 AM, compound 20 min at RT. On the procedure: B103 cells stably expressing hLPAR1 were seeded at a density of 1.0×10^5 cells per well in clear flat-bottom black 96-well plates and incubated overnight in complete media. The following day, the cells were pre-incubated in serum-free media for 2 hours prior to ensure cellular equilibration. For the loading a calcium-sensitive fluorescent dye, the cells were treated with a concentration of 5 μM Fura-2 AM dye (Sigma, F1225) in Hank's buffered salt solution (HBSS) supplemented with 20 mM HEPES, […], and 0.3% fatty-acid-free bovine serum albumin for 40 minutes at room temperature (RT). Test compounds, prepared in DMSO, were then added to each well and incubated for 20 minutes at RT. To induce calcium release, a concentration of […] in HBSS supplemented with 20 mM HEPES, and 0.3% fatty-acid-free bovine serum albumin was introduced. Intracellular calcium mobilization was subsequently quantified by monitoring the fluorescence intensity using the Spark® multimode microplate reader (TECAN).

In test [2] the test system is A2058 cells. Description: Chemotaxis Assay (LPA-induced migration of A2058 cells). The test is classed as cell-based. Particulars: Homo sapiens, 4 to 8 hours, crystal violet 590 nm. On the procedure: For monitoring the migration of cells, Neuroprobe ChemoTx® System plates ([…], 5.7 mm diameter sites; Gaithersburg, MD, USA) were utilized. To induce cell migrations, a concentration of […] or vehicle in DMEM were loaded to the bottom chamber. A total of 15,000 A2058 cells, which were starved for 24 hr following treated with test compounds or vehicle, were then applied to the upper membrane coated with 0.001% fibronectin. The plate was incubated for 4 to 8 hours to allow cell migration. Following incubation, the plate was dissembled, and the migrated cells were visualized by crystal violet staining. The stained area with crystal violet was quantified by measuring the absorbance at 590 nm and the relative percentage of the control was calculated.

Each structure is given as a SMILES string.

T1 sequence (Q92633 whole entry): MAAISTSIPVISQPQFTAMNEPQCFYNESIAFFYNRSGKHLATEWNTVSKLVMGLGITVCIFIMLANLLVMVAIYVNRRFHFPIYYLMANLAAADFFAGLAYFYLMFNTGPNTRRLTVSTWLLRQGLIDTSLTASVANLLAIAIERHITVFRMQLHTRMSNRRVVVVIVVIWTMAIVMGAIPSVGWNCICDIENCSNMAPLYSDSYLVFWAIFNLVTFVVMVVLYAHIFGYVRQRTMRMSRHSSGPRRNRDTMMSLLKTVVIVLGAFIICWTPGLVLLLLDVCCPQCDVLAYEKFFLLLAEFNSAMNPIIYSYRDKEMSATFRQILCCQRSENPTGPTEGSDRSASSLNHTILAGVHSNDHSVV

For the compound `Cc1nnn(C2CCN(c3ccc(C4(C(=O)O)CC4)cc3)CC2)c1NC(=O)O[C@H](C)c1ccccc1` [Compound 53], the IC50 (as a rule, the concentration at which inhibition is half-maximal) in test [1] was < 10 nM; in test [2] it was 500 to 5000 nM.

With `C[C@@H](OC(=O)Nc1c(C2CCN(c3ccc(C4(C(=O)NS(=O)(=O)C(C)(C)C(=O)O)CC4)cc3)CC2)nnn1C)c1ccccc1` [Compound 56], the values for the IC50 in test [1] and in test [2] were < 10 nM and 100 to 500 nM, respectively.

`C[C@@H](OC(=O)Nc1c(C2CCN(c3ccc(C4(C(=O)NS(=O)(=O)C5(C(=O)O)CC5)CC4)cc3)CC2)nnn1C)c1ccccc1` [Compound 57, 1-[[1-[4-[4-[1-methyl-5-[[(1R)-1-phenylethoxy]carbonylamino]triazol-4-yl]-1-piperidyl]phenyl]cyclopropanecarbonyl]sulfamoyl]cyclopropanecarboxylic acid]: the concentration for half-maximal inhibition (IC50) in test [1] is < 10 nM; in test [2] it was < 100 nM.

`Cc1noc(C2CCN(c3ccc(C4(C(=O)NS(=O)(=O)C(F)(F)C(N)=O)CC4)cc3)CC2)c1NC(=O)O[C@H](C)c1ccccc1` [Compound 66]: the 50% inhibitory concentration (IC50) in test [1] is < 10 nM; in test [2], < 100 nM.

`COC(=O)C(C)(C)S(=O)(=O)NC(=O)C1(c2ccc(N3CCC(c4onc(C)c4NC(=O)O[C@H](C)c4ccccc4)CC3)cc2)CC1` [Compound 69, methyl 2-methyl-2-[[1-[4-[4-[3-methyl-4-[[(1R)-1-phenylethoxy]carbonylamino]isoxazol-5-yl]-1-piperidyl]phenyl]cyclopropanecarbonyl]sulfamoyl]propanoate]: the 50% inhibitory concentration (IC50) in test [1] was < 10 nM; in test [2], < 100 nM.

With `Cc1noc(C2CCN(c3ccc(C4(C(=O)NS(=O)(=O)C5(C(N)=O)CC5)CC4)cc3)CC2)c1NC(=O)O[C@H](C)c1ccccc1` [Compound 73, (1R)-1-phenylethyl N-(5-{1-[4-(1-{[(1-carbamoylcyclopropyl)sulfonyl]carbamoyl}cyclopropyl)phenyl]piperidin-4-yl}-3-methyl-1,2-oxazol-4-yl)carbamate], the IC50 in test [1] was < 10 nM; in test [2], < 100 nM.

`Cc1noc(C2CCN(c3ccc(C4(C(=O)NS(=O)(=O)C5(C(=O)O)CC5)CC4)cc3)CC2)c1NC(=O)O[C@H](C)c1ccccc1` [Compound 75]: the IC50 in test [1] is < 10 nM; in test [2], < 100 nM.

For the compound `Cc1noc(C2CCN(c3ccc(C4(C(=O)NS(=O)(=O)C5(CC(=O)O)CC5)CC4)cc3)CC2)c1NC(=O)O[C@H](C)c1ccccc1` [Compound 76], the values for the IC50 in test [1] and in test [2] were < 10 nM and 100 to 500 nM, respectively.

Turning to `Cc1noc(C2CCN(c3ccc(C4(C(=O)NS(=O)(=O)C5(CO)CC5)CC4)cc3)CC2)c1NC(=O)O[C@H](C)c1ccccc1` [Compound 77], the results for the concentration for half-maximal inhibition (IC50) in test [1] and in test [2] were < 10 nM and < 100 nM, respectively.

Take `Cc1noc(C2CCN(c3ccc(C4(C(=O)NS(=O)(=O)CC5(C)COC5)CC4)cc3)CC2)c1NC(=O)O[C@@H](C)c1ccccc1` [Compound 81]: the half-inhibitory concentration (IC50) in test [1] is < 10 nM; in test [2] it was < 100 nM.

On to `Cc1noc(C2CCN(c3ccc(C4(C(=O)NS(=O)(=O)CC5(C(=O)O)CC5)CC4)cc3)CC2)c1NC(=O)O[C@H](C)c1ccccc1` [Compound 82, 1-[({[1-(4-{4-[3-methyl-4-({[(1R)-1-phenylethoxy]carbonyl}amino)-1,2-oxazol-5-yl]piperidin-1-yl}phenyl)cyclopropyl]formamido}sulfonyl)methyl]cyclopropane-1-carboxylic acid], for which the figures for the IC50 in test [1] and in test [2] were < 10 nM and < 100 nM, respectively.

Turning to `Cc1noc(C2CCN(c3ccc(C4(c5nnn[nH]5)CC4)cc3)CC2)c1NC(=O)O[C@H](C)c1ccccc1` [Compound 88, [(1R)-1-phenylethyl]N-[3-methyl-5-[1-[4-[1-(1H-tetrazol-5-yl)cyclopropyl]phenyl]-4-piperidyl]isoxazol-4-yl]carbamate], the 50% inhibitory concentration (IC50) in test [1] is < 10 nM; in test [2], < 100 nM.

With `Cc1noc(C2CCN(c3ccc(C4(S(=O)(=O)O)CC4)cc3)CC2)c1NC(=O)O[C@H](C)c1ccccc1` [Compound 89, 1-[4-[4-[3-methyl-4-[[(1R)-1-phenylethoxy]carbonylamino]isoxazol-5-yl]-1-piperidyl]phenyl]cyclopropanesulfonic acid], the values for the IC50 in test [1] and in test [2] were < 10 nM and 100 to 500 nM, respectively.

With `Cc1cc(NC(=O)O[C@H](C)c2ccccc2)c(C2CCN(c3ccc(C4(C(=O)O)CC4)cc3)CC2)s1` [Compound 91], the values for the IC50 in test [1] and in test [2] were ≥ 3000 nM and 100 to 500 nM, respectively.

With `Cc1noc(C2CCN(c3ccc(C4(C(=O)O)CC4)cc3)CC2)c1NC(=O)OC(C)C1CCCCC1` (centres unmarked) [Compound 96], the half-inhibitory concentration (IC50) lay in the range of 10 to 200 nM in test [1] and 500 to 5000 nM in test [2].

As to `Cc1noc(C2CCN(c3ccc(C4(C(=O)O)CC4)cc3)CC2)c1NC(=O)OC1C2C[C@H]3C[C@@H](C2)C[C@@H]1C3` (some centres unmarked) [Compound 97], the IC50 lay in the range of 200 to 3000 nM in test [1] and 500 to 5000 nM in test [2].
